Consider three molecules from patent US20240190838A1, “LZK-TARGETING DEGRADERS AND METHODS OF USE” (The U.S.A., as represented by the Secretary, Department of …, priority 2020, published 2024).

For one test, the system named is Detroit 562 cells. Kind of test: Colony formation assay, Detroit 562. Type of test: cell-based. Here is the method:
(§1) Crystal violet assays were used to assess relative cell growth and survival after treatment with specific compounds. In general, cells were plated in triplicate in 12-well plates for 24 hours before drug treatments were added using 10% FBS media. The plates were incubated for 14 days, with the media and drug being replaced every 48 hours. The cells were then washed with phosphate-buffered saline and fixed in ice-cold methanol before being stained with 0.5% crystal violet (Sigma-Aldrich) in 25% methanol. Images were taken using a ChemiDoc MP Imaging System (Bio Rad), and for quantification, the crystal violet stain was dissolved in 33% acetic acid, incubated for 20 minutes with shaking, and read at 595 nm using iMark™ Microplate Absorbance Reader (Bio-Rad). Graphs display percent colony formation relative to the DMSO-treated control sample.

Another test deals with c-MYC. Kind of test: c-MYC abundance in CAL33 cells (immunoblot). In kind it is cell-based. Here is the method:
(§2) Generally, cells were plated in six-well or 35-mm plates for 24 hours, after which doxycycline was added or treatment with specific inhibitor was administered using […] for 48 hours. After appropriate treatment time, cells were washed with ice-cold phosphate-buffered saline without Ca and Mg (Quality Biological) and then lysed on ice with RIPA buffer (50 mM NaCl, 1.0% o IGEPAL® CA-630, 0.5% o sodium deoxycholate, 0.10% SDS, 50 mM Tris, pH 8.0) (Sigma-Aldrich) supplemented with protease inhibitor tablet (Sigma-Aldrich) and phosphatase inhibitor cocktails 2 and 3 (Sigma-Aldrich) followed by centrifugation at 15,000 rpm for 10 minutes at 4° C. Protein concentrations were determined from the cell lysate by using 660 nm Protein Assay Reagent (Pierce). Cell extracts were denatured, subjected to SDS-PAGE, transferred to PVDF membranes (Bio-Rad) and blocked for 2 hours using 5 bovine serum albumin (BSA) in phosphate-buffered saline and 0.10 Tween® 20 (PBS-T). The membranes were incubated with the specific antibodies overnight in […] at 4° C. followed by a 1 hour incubation with the appropriate horseradish peroxidase-conjugated secondary antibodies and signal was detected by chemiluminescence (Thermo Fisher).

The next test has as its system BEAS-2B cells. Put plainly: Colony formation assay, BEAS-2B. Type of test: cell-based, human. Here is the method:
as §1

A further test concerns GOF mutant p53 (R175H). Put plainly: GOF mutant p53 abundance in CAL33 cells (immunoblot). In kind it is cell-based. Here is the method: as §2
In a further test the test system is BICR56 cells. Put plainly: MTS cell viability assay, BICR56. In kind it is cell-based. Here is the method:
A Cell Titer 96 AQueous One Solution Cell Proliferation Assay (Promega) was used for MTS assays following the manufacturer's protocol. […] MTS was added, cells were incubated for two hours, and absorbance was measured at 490 nm using iMark™ Microplate Absorbance Reader (Bio-Rad). Graphs display percent cell viability relative to the DMSO-treated control sample. EC50 values were determined using GraphPad Prism 8.

Test [1] concerns CDK2 activity in SCC-15 HNSCC cells. Put plainly: Live-cell imaging of CDK2 activity and cell cycle in SCC-15 cells. Type of test: cell-based. To be noted: for CDK2 activity over the cell cycle: compared to control. Here is the method: Cells were plated in 96-well plates with full growth media more than 24 hours prior to imaging, such that the density would remain sub-confluent until the end of the imaging period. Time-lapse imaging was performed in 290 μL full growth media. Images were taken in CFP and YFP channels every 12 minutes on a Nikon Ti2-E inverted microscope (Nikon) with a 20X 0.45NA objective. Total light exposure time was kept under 600 milliseconds for each time point. Cells were imaged in a humidified, 37° C. chamber at 5% CO2.
All image analyses were performed with custom MATLAB scripts as previously described (Cappell et al., Cell 2016, 166:167-180). In brief, optical illumination bias was empirically derived by sampling background areas across all wells in an imaging session, and was subsequently used to flatten all images. This enabled measurement and subtraction of a global background for each image. Cells were segmented for their nuclei based on H2B-mTurquoise. CDK2 activity was calculated by measuring the nuclear and cytoplasmic fluorescence of the DHB-mVenus protein. Cells were segmented for their cytoplasmic regions by spatially approximating a ring with an inner radius of 2 μm outside of the nuclear mask and an outer radius with a maximum of 10 μm outside of the nuclear mask. Regions within 10 μm of another nucleus were excluded. Cytoplasmic DHB-mVenus was calculated as the median intensity within the cytoplasmic ring, excluding pixel intensities indistinguishable from background.
Mitosis events were automatically identified using H2B-mTurquoise and called at anaphase when one cell split into two daughter cells, each with approximately 45-55% of the size of the mother cell. Cells were considered to have been arrested in the G2 phase if a second mitosis was not detected for more than 30 hours after the first mitosis. Following drug treatment, cells were categorized by their CDK2 activity two hours after anaphase. Cells with high CDK2 activity (defined as greater than 0.6) are considered to have immediately re-entered the cell cycle, cells with transiently low CDK2 activity (defined as less than 0.6 two hours after anaphase but rising to greater than 0.6 within the viewing time) are considered to have entered into a transient G0 state before eventually re-entering the cell cycle, and cells with low CDK2 activity (defined as less than 0.6 within the viewing time) are considered to have entered a prolonged G0 state (Arora et al., Cell Rep 2017, 19:1351-1364).

[2] abbreviates: various concentrations, 24 and 48 hours.

With `Cc1ncsc1-c1ccc([C@H](C)NC(=O)[C@@H]2C[C@@H](O)CN2C(=O)[C@@H](NC(=O)CCCCCCC(=O)N2CCC(c3cc(Nc4cc(C#N)ccn4)nc(N4CCC(F)(F)C4)c3)CC2)C(C)(C)C)cc1` [Compound 3], the colony formation result with Detroit 562 cells (2.5 μM) was “almost complete loss of colony formation”. In the test on c-MYC (24 hours and 48 hours), the “concentration with observed hook effect on c-MYC and GOF-p53 decreases” value was 10 µM. Further, in the test with c-MYC (setting [2]), the c-MYC abundance result is “loss of both GOF mutant p53 (R175H) and c-MYC abundance”. In the test with BEAS-2B cells (1 μM for 14 days, control cells), the clonogenic growth result was “little effect on control cells”. In addition, the “GOF mutant p53 (R175H) abundance” value in the test on GOF mutant p53 (R175H) (setting [2]) was “loss of both GOF mutant p53 (R175H) and c-MYC abundance”. Also, the short-term cell viability entry with BICR56 cells is “reduced”. Besides, in test [1], the cell-cycle arrest result is “caused a G2-phase cell-cycle arrest”, the “fraction of cells entering a quiescent state” value is “increased fraction of cells entering a quiescent state” and the “CDK2 activity over the cell cycle” value is reported as “slower increase in CDK2 activity over the cell cycle”.

Regarding `N#Cc1ccnc(Nc2cc(C3CCN(C4COC4)CC3)cc(N3CCC(F)(F)C3)n2)c1` [GNE-3511], the “c-MYC levels over time” value in the test with c-MYC (500 nM, up to 72 hours) is on record as “reduction in c-MYC levels that was subsequently maintained for 72 hours”. Further, the “rescue of loss of c-MYC by LZK^Q240S expression” value with c-MYC (CAL33 cells) is “rescued loss in c-MYC levels”. The colony formation result with BEAS-2B cells (200 nM, 14 days, cells lacking amplified MAP3K13) is reported as “only a minor reduction in colony formation”. In the test on GOF mutant p53 (R175H) (catalytic inhibitor treatment), the GOF-p53 expression levels result is listed as “did not alter GOF-p53 expression levels”. Also, in the test with BICR56 cells (72 hours, read-out: IC50, viability in short-term MTS assay), the IC50 came out at 410 ± 59.6 nM. Besides, in test [1], the cell-cycle arrest entry is reported as “caused a G2-phase cell-cycle arrest”, the “fraction of cells entering a quiescent state” value was “increased fraction of cells entering a quiescent state” and the “CDK2 activity over the cell cycle” value was “slower increase in CDK2 activity over the cell cycle”.

`CC(=O)N1CCC(c2cc(Nc3cc(C#N)ccn3)nc(N3CCC(F)(F)C3)c2)CC1` [LZK inhibitor 2]: the colony formation result with Detroit 562 cells (LZK inhibitor 2, concentration not stated) is on record as “suppressed colony formation”.
